Series [1] relates to HCT-116 (human colon cancer). Nature of the series: MTT growth-inhibition assay, HCT-116. The following applies: 72 h; for inhibition at 50 µM: read-out: Inhibition percentage (growth), HCT 116. The class given is cell-based. Background: Tetrazolium dyes change colour on reduction, which living cells bring about.
Series [2] has as its system MCF-7 (human breast cancer). The series is described as follows: MTT growth-inhibition assay, MCF-7. The class given is cell-based. The following applies: 72 h; for inhibition at 50 µM: MCF7, 50 μM, read-out: Inhibition percentage (growth), MCF-7.
Series [3] concerns Staphylococcus aureus (NEWP0023). The series is described as follows: Broth microdilution with TTC, S. aureus. The class given is cell-based. Conditions: 24 h, 36 °C. In general terms: In broth dilution the organism is exposed to a series of concentrations in liquid medium.
In series [4] the test system is Escherichia coli (NEWP0022). The series is described as follows: Broth microdilution with TTC, E. coli. It is filed as cell-based. The following applies: 24 h, 36 °C.
Another series is described as follows: in vitro. Conditions: hamster.

One may read the inhibition as the change of the read-out against control, counted positive when it falls. By MIC is commonly meant the lowest concentration found to suppress growth. Lower therefore signals inhibition by little substance. As usually defined, the viability is a read-out of living cells in per cent, often relative to untreated cells. What is called IC50 is the point on the concentration scale where inhibition reaches its midpoint.

Values after ≈ are worked out from the molar mass of the structure shown. Some results are limits rather than exact numbers.

Experimental for in vitro: The compounds were further diluted in a culture medium to a final concentration of 10 μM.
The proliferation assay was performed based on WST-8, using the Cell Counting kit-8. After incubation with the compounds, 10 μL per well of CCK8 solution was added, and the plates were incubated in a CO2 incubator at 37 °C for 2 h. Then, the absorbance was measured at 450 nm in the SpectraMax 384 Plate Reader. Cells in 1% DMSO were used as a negative control for the assay.

For the compound `COc1c(O)cc2oc(-c3ccc(O)cc3)c(O)c(=O)c2c1O` [Compound 1, 6-Methoxykaempferol], the inhibition at 50 µM in series [1] amounted to 29.2%; in series [2] it was 19.2%. Besides, the MIC in series [3] is 250 µg/mL (≈ 790 µM); in series [4], at least 250 µg/mL.

Turning to `COc1c(O)cc2oc(-c3ccc(O)cc3)c(OC3OC(COC(=O)C=Cc4ccc(O)cc4)C(O)C(O)C3O)c(=O)c2c1O` [Compound 4, 6-Methoxykaempferol-3-O-β-D-6″-(p-coumaroyl)-glycopyranoside], the inhibition at 50 µM in series [1] was determined as 11.5%; in series [2] it was 3.45%. In addition, the MIC was at least 500 µg/mL in series [3] and at least 250 µg/mL in series [4]. Moreover, in “in vitro”, the viability at 10 µM turned out to be 100%.

With `COc1c(O)cc2oc(-c3ccc(O)cc3)c(O[C@@H]3O[C@H](CO)[C@@H](O)[C@H](O)[C@H]3O)c(=O)c2c1O` [Compound 5, 6-Methoxykaempferol-3-O-β-glucopyranoside], the minimal inhibitory concentration (MIC) in series [3] was at least 500 µg/mL; in series [4], at least 250 µg/mL.

As to `COc1cccc2c1C(=O)c1c(O)c3c(c(O)c1C2=O)C[C@@](O)(C(=O)CO)C[C@@H]3O[C@H]1C[C@H](N)[C@H](O)[C@H](C)O1` [Doxorubicin, doxorubicin, reference compound], the concentration for half-maximal inhibition (IC50) in series [1] (positive control, 95% confidence interval in brackets) was found to be 180 nM; in series [2] (MCF7, positive control, 95% confidence interval in brackets), 1160 nM.

As for `CNC(C)C1CCC(N)C(OC2C(N)CC(N)C(OC3OCC(C)(O)C(NC)C3O)C2O)O1` (stereo not drawn) [gentamicin, reference compound], the MIC in series [3] and in series [4] was at most 0.5 µg/mL throughout.

Values taken from publication PMC12223841, “Compounds Isolated from Paepalanthus spp. (Eriocaulaceae) and Their Evaluation in Antimicrobial, Cytotoxic, and Antiviral Assays” (ACS Omega, 2025).
